# From ChEMBL document CHEMBL6134930, “Discovery of AB801, a Potent and Selective Inhibitor of AXL Receptor Tyrosine Kinase for Use in Cancer Therapy” (J Med Chem, 2025)
# What was measured:
# [1] = target: T1, Tyrosine-protein kinase receptor UFO (Homo sapiens, UniProt P30530); assay: Inhibition of human AXL measured after 150 mins by ATP-competitive HTRF based biochemical assay
# T1 sequence (P30530 whole entry): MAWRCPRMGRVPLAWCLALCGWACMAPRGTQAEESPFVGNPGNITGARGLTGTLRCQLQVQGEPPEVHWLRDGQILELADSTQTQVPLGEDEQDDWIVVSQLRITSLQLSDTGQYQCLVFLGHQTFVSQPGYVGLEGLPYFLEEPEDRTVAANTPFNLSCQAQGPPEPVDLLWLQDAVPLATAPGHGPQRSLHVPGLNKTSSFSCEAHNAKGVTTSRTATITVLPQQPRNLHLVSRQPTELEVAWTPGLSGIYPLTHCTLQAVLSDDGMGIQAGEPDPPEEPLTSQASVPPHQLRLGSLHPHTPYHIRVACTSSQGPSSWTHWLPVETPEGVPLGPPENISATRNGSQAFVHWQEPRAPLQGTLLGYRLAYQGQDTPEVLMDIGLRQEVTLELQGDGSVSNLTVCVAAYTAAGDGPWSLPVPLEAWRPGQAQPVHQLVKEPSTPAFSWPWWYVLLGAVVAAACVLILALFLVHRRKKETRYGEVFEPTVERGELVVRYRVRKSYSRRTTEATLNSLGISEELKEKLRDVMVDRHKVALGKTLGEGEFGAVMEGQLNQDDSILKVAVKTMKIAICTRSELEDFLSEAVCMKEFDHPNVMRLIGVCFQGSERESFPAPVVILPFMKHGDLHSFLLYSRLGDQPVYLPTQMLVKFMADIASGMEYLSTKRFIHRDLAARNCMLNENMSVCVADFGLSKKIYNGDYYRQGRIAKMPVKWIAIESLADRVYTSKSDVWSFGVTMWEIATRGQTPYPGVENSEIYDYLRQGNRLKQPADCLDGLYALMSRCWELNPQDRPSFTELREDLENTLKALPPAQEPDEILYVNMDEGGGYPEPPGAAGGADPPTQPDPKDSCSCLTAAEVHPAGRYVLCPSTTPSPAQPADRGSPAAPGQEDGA
# [2] = target: T1, Tyrosine-protein kinase receptor UFO; assay: Binding affinity to AXL (unknown origin) expressed in HEK293 cells transfected with Nano-Luc fusion vector assessed as dissociation constant by measuring decrease in BRET signal preincubated for 1 hr followed by K-5 NanoBRET tracer addition incubated for 2 hrs; type: cell-based
# [3] = Metabolic stability in rat hepatocytes assessed as intrinsic clearance measured per 10^6 cells; type: ADME, cell-based, Hepatocyte; conditions: read-out: CLH
# [4] = AUCinf in Sprague-Dawley rat at 2 mg/kg, po measured up to 8 hrs by LC-MS/MS analysis; type: ADME, organism-based; conditions: in vivo
# [5] = Efflux ratio in human Caco-2 cells; type: ADME, cell-based
# [6] = Metabolic stability in human hepatocytes assessed as intrinsic clearance measured per 10^6 cells; type: ADME, cell-based, Hepatocyte; conditions: read-out: CLH
# [7] = target: T1, Tyrosine-protein kinase receptor UFO; assay: Inhibition of autophosphorylation AXL (unknown origin) expressed in HEK293 cells assessed as NanoLuc activity associated with phosphorylated proteins measured after 1 hr incubation by intracellular pAXL-ELISA; type: cell-based
# [8] = Clearance in Sprague-Dawley rat at 0.5 mg/kg, iv measured up to 24 hrs by LC-MS/MS analysis; type: ADME, organism-based; conditions: in vivo
# [9] = Apparent permeability of compound from apical to basolateral side in human Caco-2 cells; type: ADME, cell-based; conditions: read-out: permeability
# hERG (KCNH2) = hERG (KCNH2) (Homo sapiens, UniProt Q12809); assay: Inhibition of hERG at 10 uM by high throughput cell based patch clamp assay; type: toxicity
# Sequence of hERG (KCNH2) (Q12809 whole entry): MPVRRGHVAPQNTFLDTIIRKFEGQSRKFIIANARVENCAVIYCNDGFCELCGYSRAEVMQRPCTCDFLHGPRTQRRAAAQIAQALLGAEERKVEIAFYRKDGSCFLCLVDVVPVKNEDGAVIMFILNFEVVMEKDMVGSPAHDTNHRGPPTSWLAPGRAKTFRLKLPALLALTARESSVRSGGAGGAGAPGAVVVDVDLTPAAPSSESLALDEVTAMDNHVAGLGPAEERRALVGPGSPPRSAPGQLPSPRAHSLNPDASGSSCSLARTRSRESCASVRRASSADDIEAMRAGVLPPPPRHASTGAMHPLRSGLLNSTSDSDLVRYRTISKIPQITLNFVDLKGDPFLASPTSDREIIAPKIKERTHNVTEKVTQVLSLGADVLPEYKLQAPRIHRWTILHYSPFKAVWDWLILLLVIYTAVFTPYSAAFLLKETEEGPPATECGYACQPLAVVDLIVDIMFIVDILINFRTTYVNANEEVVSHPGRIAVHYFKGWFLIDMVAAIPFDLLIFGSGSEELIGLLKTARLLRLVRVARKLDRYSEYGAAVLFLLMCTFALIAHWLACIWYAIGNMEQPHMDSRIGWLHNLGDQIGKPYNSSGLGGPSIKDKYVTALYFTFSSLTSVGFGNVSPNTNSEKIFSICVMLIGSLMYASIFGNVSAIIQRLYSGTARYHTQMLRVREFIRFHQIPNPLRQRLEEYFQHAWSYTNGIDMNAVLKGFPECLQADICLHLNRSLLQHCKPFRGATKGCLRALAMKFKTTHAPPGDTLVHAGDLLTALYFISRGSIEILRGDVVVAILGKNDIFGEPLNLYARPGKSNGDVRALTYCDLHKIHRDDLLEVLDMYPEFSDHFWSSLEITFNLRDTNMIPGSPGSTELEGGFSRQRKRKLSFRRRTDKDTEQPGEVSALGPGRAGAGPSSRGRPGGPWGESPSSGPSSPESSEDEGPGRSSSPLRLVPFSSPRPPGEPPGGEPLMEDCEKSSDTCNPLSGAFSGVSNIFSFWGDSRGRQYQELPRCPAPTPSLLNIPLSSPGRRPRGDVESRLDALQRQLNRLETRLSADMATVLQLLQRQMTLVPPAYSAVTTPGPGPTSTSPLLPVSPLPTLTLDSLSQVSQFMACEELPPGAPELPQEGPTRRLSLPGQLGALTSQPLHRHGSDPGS
SMILES,IC50 [1],Kd [2],hepatocyte CLint [3],AUC(0-inf) [4],efflux ratio [5],hepatocyte CLint [6],IC50 [7],clearance [8],Papp A→B [9],inhibition at 10 µM (hERG (KCNH2))
Cn1ccnc1-c1ccc(-c2n[nH]c3ncc(-c4ccc5c(c4)CC[C@@H](N4C6COCC4C6)CC5)cc23)cc1,0.63 nM,1.9 nM,16 µL/min/1e6 cells,160 ng·h/mL,18,< 2.7 µL/min/1e6 cells,,,,
CP(C)(=O)c1ccc(-c2n[nH]c3ncc(-c4ccc5c(c4)CCC(N4C6COCC4C6)CC5)cc23)cc1 (racemic),,170 nM,,,,,,,,
COc1cccnc1-c1ccc(-c2n[nH]c3ncc(-c4ccc5c(c4)CC[C@@H](N4C6COCC4C6)CC5)cc23)cc1,2.4 nM,,16 µL/min/1e6 cells,,,13 µL/min/1e6 cells,120 nM,,,
Cn1nncc1-c1ccc(-c2n[nH]c3ncc(-c4ccc5c(c4)CC[C@@H](N4C6COCC4C6)CC5)cc23)cc1,8.9 nM,91 nM,,,,,,,,
c1cc2c(cc1-c1cnc3[nH]nc(-c4ccc(N5C[C@@H]6C[C@H]5CO6)cc4)c3c1)CC[C@@H](N1C3COCC1C3)CC2,46 nM,140 nM,,,,,,,,
COCCOc1cccnc1-c1ccc(-c2n[nH]c3ncc(-c4ccc5c(c4)CC[C@@H](N4C6COCC4C6)CC5)cc23)cc1,1.3 nM,,16 µL/min/1e6 cells,,,3.2 µL/min/1e6 cells,33 nM,,,
Cc1cccnc1-c1ccc(-c2n[nH]c3ncc(-c4ccc5c(c4)CC[C@@H](N4C[C@@H]6C[C@H]4CO6)CC5)cc23)cc1,1.8 nM,,13 µL/min/1e6 cells,,,< 2.7 µL/min/1e6 cells,57 nM,,,
CN(C)S(=O)(=O)c1ccc(-c2n[nH]c3ncc(-c4ccc5c(c4)CC[C@@H](N4C6COCC4C6)CC5)cc23)cc1,2.6 nM,15 nM,110 µL/min/1e6 cells,,,36 µL/min/1e6 cells,,,,
FC(F)(F)c1cccnc1-c1ccc(-c2n[nH]c3ncc(-c4ccc5c(c4)CC[C@@H](N4C6COCC4C6)CC5)cc23)cc1,8.2 nM,,< 2.7 µL/min/1e6 cells,,,< 2.7 µL/min/1e6 cells,730 nM,,,
CO[C@H]1C[C@@H](N[C@H]2CCc3ccc(-c4cnc5[nH]nc(-c6ccc(-c7ncccc7C)cc6)c5c4)cc3CC2)C1,3.4 nM,,6.4 µL/min/1e6 cells,,,< 2.7 µL/min/1e6 cells,310 nM,,,
c1cncc(-c2ccc(-c3n[nH]c4ncc(-c5ccc6c(c5)CC[C@@H](N5C7COCC5C7)CC6)cc34)cc2)c1,19 nM,410 nM,,,,,,,,
O=C1CCCN1c1ccc(-c2n[nH]c3ncc(-c4ccc5c(c4)CC[C@@H](N4C6COCC4C6)CC5)cc23)cc1,60 nM,89 nM,,,,,,,,
O=S1(=O)CCCN1c1ccc(-c2n[nH]c3ncc(-c4ccc5c(c4)CC[C@@H](N4C6COCC4C6)CC5)cc23)cc1,13 nM,51 nM,< 2.7 µL/min/1e6 cells,39 ng·h/mL,,< 2.7 µL/min/1e6 cells,,,,
c1cc2c(cc1-c1cnc3[nH]nc(-c4ccc5c(c4)OCCO5)c3c1)CCC(N1C3COCC1C3)CC2 (racemic),17 nM,69 nM,46 µL/min/1e6 cells,,,16 µL/min/1e6 cells,,,,
Cn1cc(-c2ccc(-c3n[nH]c4ncc(-c5ccc6c(c5)CCC(N5C7COCC5C7)CC6)cc34)cc2)cn1 (racemic),34 nM,2200 nM,,,,,,,,
N#Cc1cccnc1-c1ccc(-c2n[nH]c3ncc(-c4ccc5c(c4)CC[C@@H](N4C6COCC4C6)CC5)cc23)cc1,6 nM,,< 2.7 µL/min/1e6 cells,,,< 2.7 µL/min/1e6 cells,220 nM,,,
c1ccc(-c2ccc(-c3n[nH]c4ncc(-c5ccc6c(c5)CC[C@@H](N5C7COCC5C7)CC6)cc34)cc2)nc1,5 nM,75 nM,< 2.7 µL/min/1e6 cells,2800 ng·h/mL,,< 2.7 µL/min/1e6 cells,1700 nM,,,
Cc1cccnc1-c1ccc(-c2n[nH]c3ncc(-c4ccc5c(c4)CC[C@@H](N[C@H]4CCCOC4)CC5)cc23)cc1,2.6 nM,,12 µL/min/1e6 cells,,,5.8 µL/min/1e6 cells,100 nM,,,
c1cc2c(cc1-c1cnc3[nH]nc(-c4ccc(N5C[C@H]6C[C@@H]5CO6)cc4)c3c1)CC[C@@H](N1C3COCC1C3)CC2,28 nM,130 nM,12 µL/min/1e6 cells,2900 ng·h/mL,1.2,7.2 µL/min/1e6 cells,,38.3 mL/min/kg,6.7 ×10⁻⁶ cm/s,
c1cc(-c2n[nH]c3ncc(-c4ccc5c(c4)CCC(N4C6COCC4C6)CC5)cc23)ccn1 (racemic),20 nM,38 nM,13 µL/min/1e6 cells,130 ng·h/mL,,8.7 µL/min/1e6 cells,,,,
Cc1cccnc1-c1ccc(-c2n[nH]c3ncc(-c4ccc5c(c4)CC[C@@](C)(N4CCC[C@H]4C)CC5)cc23)cc1,0.75 nM,,< 2.7 µL/min/1e6 cells,380 ng·h/mL,,< 2.7 µL/min/1e6 cells,13 nM,,,
COCCOc1ccc(-c2n[nH]c3ncc(-c4ccc5c(c4)CC[C@@H](N4C6COCC4C6)CC5)cc23)cc1,12 nM,66 nM,9.1 µL/min/1e6 cells,4200 ng·h/mL,0.93,14 µL/min/1e6 cells,,15 mL/min/kg,17 ×10⁻⁶ cm/s,84%
CS(=O)(=O)c1ccc(-c2n[nH]c3ncc(-c4ccc5c(c4)CC[C@@H](N4C6COCC4C6)CC5)cc23)cc1,3.8 nM,13 nM,9.8 µL/min/1e6 cells,120 ng·h/mL,,5.8 µL/min/1e6 cells,,,,
c1cc2c(cc1-c1cnc3[nH]nc(-c4ccc(N5CCOCC5)cc4)c3c1)CC[C@@H](N1C3COCC1C3)CC2,66 nM,190 nM,,,,,,,,
c1cc2c(cc1-c1cnc3[nH]nc(-c4ccc(N5CC6(COC6)C5)cc4)c3c1)CC[C@@H](N1C3COCC1C3)CC2,27 nM,120 nM,,,,,,,,
CCc1cccnc1-c1ccc(-c2n[nH]c3ncc(-c4ccc5c(c4)CC[C@@H](N4C6COCC4C6)CC5)cc23)cc1,1.4 nM,,30 µL/min/1e6 cells,,,6.3 µL/min/1e6 cells,190 nM,,,
Cn1nccc1-c1ccc(-c2n[nH]c3ncc(-c4ccc5c(c4)CC[C@@H](N4C6COCC4C6)CC5)cc23)cc1,3.9 nM,31 nM,,,,,,,,
Cn1ncnc1-c1ccc(-c2n[nH]c3ncc(-c4ccc5c(c4)CC[C@@H](N4C6COCC4C6)CC5)cc23)cc1,2.7 nM,7.1 nM,5 µL/min/1e6 cells,410 ng·h/mL,5.7,< 2.7 µL/min/1e6 cells,,,,
